Source: the NIST ThermoML archive (doi:10.1016/j.tca.2015.06.017)
± gives the expanded uncertainty stated by the source.

Assay: xn = mol fraction of the nth substance listed
Settings: Liquid, Vibrating tube method

CCCCCl [1-chlorobutane] + CCCCCCC
mass density [kg/m3]
Settings	293.15 K	298.15 K
100 kPa, x2 = 0.0508	–	866.47 ± 0.24
100 kPa, x2 = 0.0994	–	853.29 ± 0.24
100 kPa, x2 = 0.2013	–	827.27 ± 0.24
100 kPa, x2 = 0.3015	–	803.67 ± 0.24
100 kPa, x2 = 0.4008	–	781.96 ± 0.24
100 kPa, x2 = 0.5026	–	761.38 ± 0.24
100 kPa, x2 = 0.6012	–	742.88 ± 0.25
100 kPa, x2 = 0.7003	–	725.57 ± 0.25
100 kPa, x2 = 0.7995	–	709.43 ± 0.25
100 kPa, x2 = 0.9011	–	694 ± 0.25
100 kPa, x2 = 0.9494	–	687.02 ± 0.25
2000 kPa, x2 = 0.0508	–	868.56 ± 0.25
2000 kPa, x2 = 0.0994	–	855.4 ± 0.25
2000 kPa, x2 = 0.2013	–	829.39 ± 0.25
2000 kPa, x2 = 0.3015	–	805.75 ± 0.25
2000 kPa, x2 = 0.4008	–	784.08 ± 0.26
2000 kPa, x2 = 0.5026	–	763.54 ± 0.26
2000 kPa, x2 = 0.6012	–	745 ± 0.26
2000 kPa, x2 = 0.7003	–	727.68 ± 0.27
2000 kPa, x2 = 0.7995	–	711.52 ± 0.27
2000 kPa, x2 = 0.9011	–	696.1 ± 0.27
2000 kPa, x2 = 0.9494	–	689.1 ± 0.27
5000 kPa, x2 = 0.0508	–	871.65 ± 0.26
5000 kPa, x2 = 0.0994	–	858.46 ± 0.27
5000 kPa, x2 = 0.2013	–	832.44 ± 0.27
5000 kPa, x2 = 0.3015	–	808.8 ± 0.28
5000 kPa, x2 = 0.4008	–	787.1 ± 0.28
5000 kPa, x2 = 0.5026	–	766.44 ± 0.29
5000 kPa, x2 = 0.6012	–	747.93 ± 0.29
5000 kPa, x2 = 0.7003	–	730.59 ± 0.3
5000 kPa, x2 = 0.7995	–	714.37 ± 0.3
5000 kPa, x2 = 0.9011	–	698.9 ± 0.3
5000 kPa, x2 = 0.9494	–	691.9 ± 0.31
7000 kPa, x2 = 0.0508	–	873.68 ± 0.27
7000 kPa, x2 = 0.0994	–	860.48 ± 0.28
7000 kPa, x2 = 0.2013	–	834.46 ± 0.28
7000 kPa, x2 = 0.3015	–	810.76 ± 0.29
7000 kPa, x2 = 0.4008	–	789.09 ± 0.3
7000 kPa, x2 = 0.5026	–	768.42 ± 0.3
7000 kPa, x2 = 0.6012	–	749.89 ± 0.31
7000 kPa, x2 = 0.7003	–	732.52 ± 0.32
7000 kPa, x2 = 0.7995	–	716.31 ± 0.32
7000 kPa, x2 = 0.9011	–	700.8 ± 0.33
7000 kPa, x2 = 0.9494	–	693.79 ± 0.33
10000 kPa, x2 = 0.0508	–	876.62 ± 0.28
10000 kPa, x2 = 0.0994	–	863.41 ± 0.29
10000 kPa, x2 = 0.2013	–	837.33 ± 0.3
10000 kPa, x2 = 0.3015	–	813.6 ± 0.31
10000 kPa, x2 = 0.4008	–	791.87 ± 0.32
10000 kPa, x2 = 0.5026	–	771.16 ± 0.33
10000 kPa, x2 = 0.6012	–	752.57 ± 0.34
10000 kPa, x2 = 0.7003	–	735.16 ± 0.35
10000 kPa, x2 = 0.7995	–	718.95 ± 0.35
10000 kPa, x2 = 0.9011	–	703.38 ± 0.36
10000 kPa, x2 = 0.9494	–	696.37 ± 0.36
20000 kPa, x2 = 0.0508	–	885.92 ± 0.32
20000 kPa, x2 = 0.0994	–	872.69 ± 0.33
20000 kPa, x2 = 0.2013	–	846.51 ± 0.36
20000 kPa, x2 = 0.3015	–	822.71 ± 0.37
20000 kPa, x2 = 0.4008	–	800.83 ± 0.39
20000 kPa, x2 = 0.5026	784.43 ± 0.41	780.1 ± 0.41
20000 kPa, x2 = 0.6012	765.68 ± 0.42	761.37 ± 0.42
20000 kPa, x2 = 0.7003	748.06 ± 0.44	743.91 ± 0.44
20000 kPa, x2 = 0.7995	731.66 ± 0.45	727.56 ± 0.45
20000 kPa, x2 = 0.9011	715.92 ± 0.46	711.9 ± 0.47
20000 kPa, x2 = 0.9494	708.79 ± 0.47	704.84 ± 0.47
30000 kPa, x2 = 0.0508	899 ± 0.35	894.38 ± 0.36
30000 kPa, x2 = 0.0994	885.66 ± 0.37	881.09 ± 0.37
30000 kPa, x2 = 0.2013	859.31 ± 0.4	854.8 ± 0.4
30000 kPa, x2 = 0.3015	835.33 ± 0.43	830.93 ± 0.43
30000 kPa, x2 = 0.4008	813.25 ± 0.45	808.96 ± 0.46
30000 kPa, x2 = 0.5026	792.34 ± 0.48	788.14 ± 0.48
30000 kPa, x2 = 0.6012	773.46 ± 0.5	769.31 ± 0.51
30000 kPa, x2 = 0.7003	755.75 ± 0.52	751.75 ± 0.53
30000 kPa, x2 = 0.7995	739.24 ± 0.54	735.28 ± 0.55
30000 kPa, x2 = 0.9011	723.44 ± 0.56	719.55 ± 0.57
30000 kPa, x2 = 0.9494	716.27 ± 0.57	712.41 ± 0.58
40000 kPa, x2 = 0.0508	906.7 ± 0.38	902.26 ± 0.39
40000 kPa, x2 = 0.0994	893.3 ± 0.4	888.92 ± 0.41
40000 kPa, x2 = 0.2013	866.83 ± 0.44	862.54 ± 0.45
40000 kPa, x2 = 0.3015	842.76 ± 0.48	838.54 ± 0.49
40000 kPa, x2 = 0.4008	820.58 ± 0.51	816.49 ± 0.52
40000 kPa, x2 = 0.5026	799.52 ± 0.55	795.57 ± 0.55
40000 kPa, x2 = 0.6012	780.6 ± 0.58	776.69 ± 0.58
40000 kPa, x2 = 0.7003	762.81 ± 0.61	759 ± 0.61
40000 kPa, x2 = 0.7995	746.17 ± 0.63	742.45 ± 0.64
40000 kPa, x2 = 0.9011	730.25 ± 0.66	726.58 ± 0.67
40000 kPa, x2 = 0.9494	723.03 ± 0.67	719.41 ± 0.68
50000 kPa, x2 = 0.0508	913.76 ± 0.4	909.49 ± 0.41
50000 kPa, x2 = 0.0994	900.34 ± 0.43	896.12 ± 0.43
50000 kPa, x2 = 0.2013	873.81 ± 0.48	869.69 ± 0.49
50000 kPa, x2 = 0.3015	849.63 ± 0.53	845.59 ± 0.53
50000 kPa, x2 = 0.4008	827.43 ± 0.57	823.5 ± 0.58
50000 kPa, x2 = 0.5026	806.3 ± 0.61	802.4 ± 0.62
50000 kPa, x2 = 0.6012	787.26 ± 0.65	783.45 ± 0.66
50000 kPa, x2 = 0.7003	769.39 ± 0.68	765.7 ± 0.69
50000 kPa, x2 = 0.7995	752.7 ± 0.72	749.08 ± 0.73
50000 kPa, x2 = 0.9011	736.68 ± 0.75	733.13 ± 0.76
50000 kPa, x2 = 0.9494	729.41 ± 0.77	725.89 ± 0.77
60000 kPa, x2 = 0.0508	920.42 ± 0.42	916.33 ± 0.43
60000 kPa, x2 = 0.0994	906.99 ± 0.45	902.96 ± 0.46
60000 kPa, x2 = 0.2013	880.39 ± 0.51	876.46 ± 0.52
60000 kPa, x2 = 0.3015	856.15 ± 0.57	852.33 ± 0.58
60000 kPa, x2 = 0.4008	833.88 ± 0.62	830.1 ± 0.63
60000 kPa, x2 = 0.5026	812.63 ± 0.67	809.01 ± 0.68
60000 kPa, x2 = 0.6012	793.52 ± 0.72	790 ± 0.72
60000 kPa, x2 = 0.7003	775.64 ± 0.76	772.14 ± 0.77
60000 kPa, x2 = 0.7995	758.87 ± 0.8	755.42 ± 0.81
60000 kPa, x2 = 0.9011	742.77 ± 0.84	739.4 ± 0.85
60000 kPa, x2 = 0.9494	735.46 ± 0.86	732.12 ± 0.86
65000 kPa, x2 = 0.0508	923.76 ± 0.43	919.61 ± 0.44
65000 kPa, x2 = 0.0994	910.28 ± 0.46	906.21 ± 0.47
65000 kPa, x2 = 0.2013	883.59 ± 0.53	879.69 ± 0.54
65000 kPa, x2 = 0.3015	859.28 ± 0.59	855.51 ± 0.6
65000 kPa, x2 = 0.4008	836.95 ± 0.64	833.25 ± 0.65
65000 kPa, x2 = 0.5026	815.67 ± 0.7	812.1 ± 0.71
65000 kPa, x2 = 0.6012	796.5 ± 0.75	793.04 ± 0.76
65000 kPa, x2 = 0.7003	778.5 ± 0.8	775.16 ± 0.8
65000 kPa, x2 = 0.7995	761.67 ± 0.84	758.43 ± 0.85
65000 kPa, x2 = 0.9011	745.52 ± 0.88	742.37 ± 0.89
65000 kPa, x2 = 0.9494	738.19 ± 0.9	735.07 ± 0.91
